Series [1] deals with Anas platyrhynchos. To be noted: short-term; duration: 5 days; oral; feed; mortality.
The test system of series [2] is Apis mellifera. To be noted: acute; duration: 48 hours; dermal; mortality.
Series [3] relates to Canidae. To be noted: subchronic; duration: 90 days; oral; diet; Dog Other; clinical signs.
In series [4] the test system is Colinus virginianus. To be noted: reproduction developmental.
For series [5], the system named is Coturnix japonica. To be noted: acute; oral; mortality.
The test system of series [6] is Daphnia magna. To be noted: chronic/long-term; reproduction.
Series [7] deals with Oncorhynchus mykiss.
Series [8] deals with Rattus norvegicus. To be noted: acute; oral; mortality.
For series [9], the system named is Tagia sp. To be noted: mortality.
Series [10] deals with Aphidius rhopalosiphi. As to the kind of experiment: LR50; higher = less toxic. To be noted: acute; duration: 48 hours; mortality.

Molecules are shown by their SMILES. Converted amounts (≈) assume the structure as drawn.

This is an account of results in EPA's ToxValDB 9.5 (doi:10.2903/j.efsa.2006.79r).

As usually defined, the NOAEL is the highest dose or exposure tested at which no adverse effect was seen.

As for `CNC(=O)Oc1cc(C)c(SC)c(C)c1` [Methiocarb], the LC50 in series [1] was determined as 1070 mg/kg; in [7] (acute, mortality), 0.65 µg/mL (≈ 2.88 µM); in series [9] (acute), 1330 mg/kg. Further, the LD50 in [2] turned out to be 0.23 µg/piece; in series [5] it was 5 mg/kg; in series [8], 19 mg/kg. For the same compound, the no observed adverse effect level (NOAEL) in series [3] came out at 1.33 mg/kg-day. Moreover, the NOEC was found to be 4.51 mg/kg-day in series [4]; 0.0001 mg/L in series [6]; 0.05 mg/L in series [7] (chronic/long-term, growth); 0.32 mg/kg in series [9] (chronic/long-term). In [10], the LR50 came to 0.47 g/ha.
